According to PubChem BioAssay AID2060898 (Molecular Pharmacology Branch, DTP, NCI, 2025):

Test system: 616215-338-R-J1-PDC complex spheroid viability
Test: Anticancer human tumor 616215-338-R-J1-PDC patient-derived colon adenocarcinoma cell line growth inhibition [RAS]
Details: for IC50: curve of first compound; for viability, T/C: stronger effect = lower value
How it was run: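 Tumour cells grown as complex spheroids with HUVEC endothelial cells and mesenchymal stem cells, treated with RAS pathway inhibitor combinations. Each agent spans half-log steps from near clinical Cmax, or 10 microM where Cmax is unknown.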
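Note: spheroids exposed to agents for seven days before viability readout.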
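Throughout, for viability, T/C: 100% = DMSO vehicle control viability.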

`CC(=O)OC12COC1CC(O)C1(C)C(=O)C(O)C3=C(C)C(OC(=O)C(O)C(NC(=O)OC(C)(C)C)c4ccccc4)CC(O)(C(OC(=O)c4ccccc4)C21)C3(C)C` (centres undefined) + C=CC(=O)N1CCN(c2nc(OCC3CCCN3C)nc3c(F)c(-c4nc(N)cc(C)c4C(F)(F)F)c(Cl)cc23)C(C)C1 gave an IC50 (second compound 0.00316 µM) of less than 31.6 nM, an IC50 (second compound 0.01 µM) of less than 31.6 nM and an IC50 (second compound 0.0316 µM) of less than 31.6 nM. The IC50 (second compound 0.1 µM) was less than 31.6 nM, the IC50 (second compound 0.316 µM) was less than 31.6 nM and the IC50 (second compound 1 µM) was less than 31.6 nM. For the same molecule, the viability, T/C (second compound 0.00316 µM, first compound 0.0316 µM) was 28%, the viability, T/C (second compound 0.00316 µM, first compound 0.1 µM) was 22.4% and the viability, T/C (second compound 0.00316 µM, first compound 0.316 µM) was 18.4%. It also gave a viability, T/C (second compound 0.00316 µM, first compound 1 µM) of 18.6%, a viability, T/C (second compound 0.00316 µM, first compound 3.16 µM) of 18.3% and a viability, T/C (second compound 0.00316 µM, first compound 10 µM) of 24.5%. For the same molecule, the viability, T/C (second compound 0.01 µM, first compound 0.0316 µM) was 25.3%, the viability, T/C (second compound 0.01 µM, first compound 0.1 µM) was 21.4% and the viability, T/C (second compound 0.01 µM, first compound 0.316 µM) was 17.5%. It also gave a viability, T/C (second compound 0.01 µM, first compound 1 µM) of 20.5%, a viability, T/C (second compound 0.01 µM, first compound 3.16 µM) of 18.7% and a viability, T/C (second compound 0.01 µM, first compound 10 µM) of 21.2%. It also gave a viability, T/C (second compound 0.0316 µM, first compound 0.0316 µM) of 21.3%, a viability, T/C (second compound 0.0316 µM, first compound 0.1 µM) of 23.9% and a viability, T/C (second compound 0.0316 µM, first compound 0.316 µM) of 16.5%. It also gave a viability, T/C (second compound 0.0316 µM, first compound 1 µM) of 18.5%, a viability, T/C (second compound 0.0316 µM, first compound 3.16 µM) of 20% and a viability, T/C (second compound 0.0316 µM, first compound 10 µM) of 21.9%. The viability, T/C (second compound 0.1 µM, first compound 0.0316 µM) was 24.3%, the viability, T/C (second compound 0.1 µM, first compound 0.1 µM) was 20.6% and the viability, T/C (second compound 0.1 µM, first compound 0.316 µM) was 20.6%. The viability, T/C (second compound 0.1 µM, first compound 1 µM) was 16.4%, the viability, T/C (second compound 0.1 µM, first compound 3.16 µM) was 21.1% and the viability, T/C (second compound 0.1 µM, first compound 10 µM) was 21%. It also gave a viability, T/C (second compound 0.316 µM, first compound 0.0316 µM) of 22.3%, a viability, T/C (second compound 0.316 µM, first compound 0.1 µM) of 22.3% and a viability, T/C (second compound 0.316 µM, first compound 0.316 µM) of 17.2%. The viability, T/C (second compound 0.316 µM, first compound 1 µM) was 18.5%, the viability, T/C (second compound 0.316 µM, first compound 3.16 µM) was 20.8% and the viability, T/C (second compound 0.316 µM, first compound 10 µM) was 23.9%. For the same molecule, the viability, T/C (second compound 1 µM, first compound 0.0316 µM) was 22.4%, the viability, T/C (second compound 1 µM, first compound 0.1 µM) was 20.4% and the viability, T/C (second compound 1 µM, first compound 0.316 µM) was 18.7%. It also gave a viability, T/C (second compound 1 µM, first compound 1 µM) of 17.3%, a viability, T/C (second compound 1 µM, first compound 3.16 µM) of 23% and a viability, T/C (second compound 1 µM, first compound 10 µM) of 24.8%.

`CCc1c2c(nc3ccc(O)cc13)-c1cc3c(c(=O)n1C2)COC(=O)[C@]3(O)CC` + C=CC(=O)N1CCN(c2nc(OCC3CCCN3C)nc3c(F)c(-c4nc(N)cc(C)c4C(F)(F)F)c(Cl)cc23)C(C)C1 gave an IC50 (second compound 0.00316 µM) of 8.93 nM, an IC50 (second compound 0.01 µM) of 8.71 nM and an IC50 (second compound 0.0316 µM) of 13.8 nM. For the same molecule, the IC50 (second compound 0.1 µM) was 9.38 nM, the IC50 (second compound 0.316 µM) was 14.1 nM and the IC50 (second compound 1 µM) was 8.32 nM. For the same molecule, the viability, T/C (second compound 0.00316 µM, first compound 0.000949 µM) was 98%, the viability, T/C (second compound 0.00316 µM, first compound 0.003 µM) was 103% and the viability, T/C (second compound 0.00316 µM, first compound 0.00949 µM) was 47.2%. The viability, T/C (second compound 0.00316 µM, first compound 0.03 µM) was 27%, the viability, T/C (second compound 0.00316 µM, first compound 0.0949 µM) was 20.6% and the viability, T/C (second compound 0.00316 µM, first compound 0.3 µM) was 16.9%. The viability, T/C (second compound 0.01 µM, first compound 0.000949 µM) was 99.3%, the viability, T/C (second compound 0.01 µM, first compound 0.003 µM) was 106% and the viability, T/C (second compound 0.01 µM, first compound 0.00949 µM) was 45.8%. For the same molecule, the viability, T/C (second compound 0.01 µM, first compound 0.03 µM) was 30.2%, the viability, T/C (second compound 0.01 µM, first compound 0.0949 µM) was 23.6% and the viability, T/C (second compound 0.01 µM, first compound 0.3 µM) was 17.6%. It also gave a viability, T/C (second compound 0.0316 µM, first compound 0.000949 µM) of 107%, a viability, T/C (second compound 0.0316 µM, first compound 0.003 µM) of 115% and a viability, T/C (second compound 0.0316 µM, first compound 0.00949 µM) of 59.9%. It also gave a viability, T/C (second compound 0.0316 µM, first compound 0.03 µM) of 32.5%, a viability, T/C (second compound 0.0316 µM, first compound 0.0949 µM) of 18.4% and a viability, T/C (second compound 0.0316 µM, first compound 0.3 µM) of 14.9%. For the same molecule, the viability, T/C (second compound 0.1 µM, first compound 0.000949 µM) was 112%, the viability, T/C (second compound 0.1 µM, first compound 0.003 µM) was 109% and the viability, T/C (second compound 0.1 µM, first compound 0.00949 µM) was 48.5%. It also gave a viability, T/C (second compound 0.1 µM, first compound 0.03 µM) of 29.4%, a viability, T/C (second compound 0.1 µM, first compound 0.0949 µM) of 20.1% and a viability, T/C (second compound 0.1 µM, first compound 0.3 µM) of 16.5%. It also gave a viability, T/C (second compound 0.316 µM, first compound 0.000949 µM) of 110%, a viability, T/C (second compound 0.316 µM, first compound 0.003 µM) of 98.1% and a viability, T/C (second compound 0.316 µM, first compound 0.00949 µM) of 57.7%. The viability, T/C (second compound 0.316 µM, first compound 0.03 µM) was 32.4%, the viability, T/C (second compound 0.316 µM, first compound 0.0949 µM) was 16.3% and the viability, T/C (second compound 0.316 µM, first compound 0.3 µM) was 12.8%. For the same molecule, the viability, T/C (second compound 1 µM, first compound 0.000949 µM) was 106%, the viability, T/C (second compound 1 µM, first compound 0.003 µM) was 110% and the viability, T/C (second compound 1 µM, first compound 0.00949 µM) was 42.5%. For the same molecule, the viability, T/C (second compound 1 µM, first compound 0.03 µM) was 28.2%, the viability, T/C (second compound 1 µM, first compound 0.0949 µM) was 22.9% and the viability, T/C (second compound 1 µM, first compound 0.3 µM) was 15.4%.
